pEC50: −log10 of the molar value. Like-named read-outs stand apart in the source and are kept apart here.

The test system of experiment [1] is C3H10T1/2 embryonic fibroblast cells. The class given is cell-based, mouse. As to conditions: C3H cells, 4 days; for pEC50: whole cell extracts, read-out: EC50 for inducing ALP activity. On the procedure: (§1) For direct comparison to Oxy133, C3H cells were also treated with Oxy34 and Oxy49 (FIG. 2A). After 4 days, alkaline phosphatase (ALP) activity was measured in whole cell extracts.
(§2) Cells at confluence were treated with vehicle, Oxy133 or Oxy149. After 4 days, alkaline phosphatase (ALP) activity was measured in whole cell extracts.
(§3) Alkaline phosphatase (ALP) activity assay on whole cell extracts (13,14), and von Kossa staining of cell monolayers for mineralization (16) were performed as previously described.

Experiment [2] concerns M2-10B4 bone marrow stromal cells. The experiment in a line: Alkaline phosphatase (ALP) activity assay in M2-10B4 cells. The format is cell-based, mouse. On the procedure:
as §1, §2, §3

The subject of experiment [3] is Lewis rats. As to conditions: prior studies (ref. 15); cited from earlier work.
Experiment [4] deals with Lewis rats. Briefly: Rat posterolateral intertransverse process spinal fusion at L4-L5. The format is in vivo. To be noted: for Fusion Rates, Manual Palpation / Fusion Rates, Micro-CT / Fusion Rates, X-ray: at sacrifice (8 weeks); for bilateral fusion on radiographs (animals): four weeks; for Fusion Mass Bone Volume / Fusion Mass Bone Volume to Tissue Volume / Fusion Mass Total Tissue Volume / Fusion Mass Trabecular Separation / trabecular thickness per footnote: micro-CT. The method, then: Thirty-eight 8-week-old male Lewis rats were purchased from Charles River Laboratories (Wilmington, Mass.) and were maintained and housed at the UCLA vivarium in accordance with regulations set forth by the UCLA Office of Protection of Research Subjects. The study was performed under a protocol approved by the UCLA Animal Research Committee (ARC).
Animals were pre-medicated with sustained release buprenorphine thirty minutes prior to surgery and anesthetized with 2% isoflurane administered in oxygen (1 L/min). The surgical site was shaved and disinfected with Betadine and 70% ethanol. Posterolateral intertransverse process spinal fusion at L4-L5 was performed as in prior studies (21,22). The L6 vertebral body was identified using the iliac crest as a landmark. A 4-cm longitudinal midline incision was made through the skin and subcutaneous tissue over L4-L5 down to the lumbodorsal fascia. A 2-cm longitudinal paramedial incision was then made in the paraspinal muscles bilaterally to expose the transverse processes of L4-L5, which were decorticated with a high-speed burr. […] The implants were then covered with the overlying paraspinal muscles and the lumbodorsal fascia and skin were closed with 4-0 Prolene sutures (Ethicon, Inc., Somerville, N.J.). Animals were allowed to ambulate, eat, and drink ad libitum immediately after surgery.
Posteroanterior radiographs of the lumbar spine were taken on each animal at 4, 6, and 8 weeks after surgery using a Faxitron LX60 cabinet radiography system and evaluated blindly by two independent observers employing the following standardized scale: 0, no fusion; 1, unilateral fusion; and 2, complete bilateral fusion. The scores from the observers were added together and only a score of 4 was considered as complete fusion.
Eight weeks after surgery, animals were euthanized and the spines were surgically removed and evaluated by two blinded independent observers for motion between levels. Nonunion was recorded if motion was observed between the facets or transverse processes on either side. Complete fusion was recorded if no motion was observed bilaterally. Spines were scored as either fused or not fused. Unanimous agreement was required to consider complete fusion.
Each removed spine was analyzed by high resolution micro-computed tomography (micro-CT), using a SkyScan 1172 scanner (SkyScan, Belgium) with a voxel isotropic resolution of 20 μm and an X-ray energy of 55 kVp and […] to further assess the fusion rate and observe the fusion mass as we have previously reported (15). Three hundred and sixty projections were acquired over an angular range of 180° with steps of 0.5 with an exposure time of 220 msec/slice. Five frames were averaged at each rotation step to get better signal to noise ratio. A 0.5 mm aluminum filter was used to narrow down the X-ray beam frequency in order to minimize beam hardening artifact. Virtual image slices were reconstructed using the cone-beam reconstruction software version 2.6 based on the Feldkamp algorithm (SkyScan). These settings produced serial cross-sectional 1024×1024 pixel images. Sample re-orientation and 2D visualization were performed using DataViewer (SkyScan). 3D visualization was performed using Dolphin Imaging version 11 (Dolphin Imaging & Management Solutions, Chatsworth, Calif.). Fusion was defined as the bilateral presence of bridging bone between the L4 and L5 transverse processes. The reconstructed images were judged to be fused or not fused by two experienced independent observers. To quantify the density of bone formed within each fusion mass, the tissue volume of the mass (TV), trabecular bone volume within the mass (BV), BV/TV ratio, trabecular thickness, and trabecular separation were calculated. This was performed using DataViewer software with measurements across 501 axial slices (20 um per slice, 10.02 mm length) within each fusion mass, centered at the level of the intervertebral body of L4-5.

Experiment [5] deals with primary human mesenchymal stem cells. Briefly: Osteogenic gene expression by quantitative RT-PCR in primary human MSC. The class given is cell-based. To be noted: 5 μM. The text has this:
(La Jolla, Calif.). […] Human primers sequences were: […] ID NO:1) and 3'-[NT] (SEQ ID NO:2), BSP 5'-[NT] ID NO:3) and 3'-[NT] ID NO:4), […] ID NO:5) and 3'-[NT]

In experiment [6] the test system is 8X-Gli luciferase reporter (Hedgehog pathway). The class given is cell-based, mouse. To be noted: C3H cells, 48 hours. The method, then:
(§4) After 4 days ALP activity, and after 7 days the expression of osteogenic genes ALP, BSP, and OSX was measured by quantitative real-time PCR (p<0.001 for control vs. Oxy133, and for Oxy133 vs. Oxy133+Cyc for ALP activity and for the expression of all genes shown). […] (p<0.001 for control vs. Oxy133 at 100 nM, 250 nM, and 1 μM Oxy133). (FIG. 4C) The amount of YFP-Smo captured by 20S beads or control beads was compared in samples containing either no competitor or 50 μM of a free competitor sterol (20S, Oxy133 or Oxy16). The YFP-Smo captured by the beads was measured by Western blot (top) and plotted (bottom) relative to the amount captured in the binding reaction with no competitor.
Cells at 70% confluence in 24-well plates were transiently transfected with Gli-dependent firefly luciferase and Renilla luciferase vectors as we have previously described (17,18). […] Luciferase activity was assessed using the Dual Luciferase Reporter Assay System (Promega Corporation, Madison, Wis.) according to manufacturer's instructions after cells were treated for 48 hours.

A further experiment deals with T1, Smoothened (YFP-Smo) (Mus musculus, UniProt P56726).
T1 construct: expressed in transfected cells
T1 sequence (P56726 33-793): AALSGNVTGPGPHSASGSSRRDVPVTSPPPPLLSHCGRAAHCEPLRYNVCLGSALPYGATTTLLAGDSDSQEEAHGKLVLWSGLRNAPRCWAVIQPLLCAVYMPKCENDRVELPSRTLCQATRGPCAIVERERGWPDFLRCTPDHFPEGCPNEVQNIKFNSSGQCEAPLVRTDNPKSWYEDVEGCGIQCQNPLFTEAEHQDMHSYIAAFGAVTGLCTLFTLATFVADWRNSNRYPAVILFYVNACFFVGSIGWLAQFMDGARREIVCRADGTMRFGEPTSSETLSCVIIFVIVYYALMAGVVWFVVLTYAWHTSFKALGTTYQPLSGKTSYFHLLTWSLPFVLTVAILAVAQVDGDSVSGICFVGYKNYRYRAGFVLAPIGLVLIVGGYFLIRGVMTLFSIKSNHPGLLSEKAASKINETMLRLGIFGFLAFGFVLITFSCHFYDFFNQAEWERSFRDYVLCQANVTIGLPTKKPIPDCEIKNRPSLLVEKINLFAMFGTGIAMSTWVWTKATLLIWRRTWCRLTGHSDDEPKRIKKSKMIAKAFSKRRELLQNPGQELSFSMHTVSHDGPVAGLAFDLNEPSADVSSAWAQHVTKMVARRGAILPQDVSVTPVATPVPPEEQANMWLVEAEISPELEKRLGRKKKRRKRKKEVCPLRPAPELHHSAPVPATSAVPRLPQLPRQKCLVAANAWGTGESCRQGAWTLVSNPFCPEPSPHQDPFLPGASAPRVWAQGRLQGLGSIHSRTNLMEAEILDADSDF
Briefly: YFP-Smo capture by 20S-beads, competition with free sterol. The format is binding. To be noted: 50 μM free competitor sterol, Western blot, semi-quantitative. The method, then: as §4
We previously reported that 20S selectively activates Hh signaling by binding to the Smo receptor (19). To determine whether Oxy133 activates Hh signaling by the same mechanism, we tested the ability of Oxy133 to compete for YFP-tagged Smo (YFP-Smo) binding with a 20S analogue coupled to magnetic beads. As we previously reported, this analogue, nat-20S-yne, contains an alkyne moiety on the iso-octyl chain, allowing for click chemistry-mediated coupling to magnetic beads (20S-beads) (19). Using these beads for sterol-binding assays, the amount of YFP-Smo remaining on the beads relative to a no-competitor sample is measured by Western blotting. […]
On the technique in general: In western blotting, separated proteins are transferred to a membrane and probed.

As to `CC1=C2C[C@H]3[C@@H](CC=C4C[C@@H](O)CC[C@@]43C)[C@@H]2CC[C@]12O[C@@H]1C[C@H](C)CN[C@H]1[C@H]2C` [Cyclopamine, reference compound], the “inhibition of Oxy133-induced ALP activity” value in experiment [1] (4 μM cyclopamine) is recorded as “completely inhibited”. Further, in experiment [2] (M2 cells (data not shown)), the “inhibition of Oxy133-induced ALP activity and osteogenic marker expression” value was “completely inhibited”.

With `CC(C)CCCC(C)(O)C1CCC2C3CC(O)C4CC(O)CCC4(C)C3CCC21C` (stereo not shown) [Oxy34], in the experiment on Lewis rats [3], the “fusion at the 4 week time point” value is “no fusion was observed”. Moreover, the pEC50 in experiment [1] was 6.10.

Take `C=C(C)CCC[C@](C)(O)[C@H]1CC[C@H]2[C@@H]3C[C@H](O)[C@H]4C[C@@H](O)CC[C@]4(C)[C@H]3CC[C@@]21C` [Oxy49]: the “fusion at the 4 week time point” value with Lewis rats [3] is listed as “no fusion was observed”. Moreover, the pEC50 in experiment [1] was 6.05.

For `CCCCCC[C@](C)(O)[C@H]1CC[C@H]2[C@@H]3C[C@H](O)[C@H]4C[C@@H](O)CC[C@]4(C)[C@H]3CC[C@@]21C` [Oxy133, (3S,5S,6S,8R,9S,10R,13S,14S,17S)-17-((S)-2-hydroxyoctan-2-yl)-10,13-dimethylhexadecahydro-1H-cyclopenta[a]phenanthrene-3,6-diol], the negative logarithm of the EC50 (pEC50) in experiment [1] (Mus musculus, 96 h) is ~6.30. Also, in the experiment with Lewis rats [4] (0.2 mg), the “Fusion Rates, Manual Palpation” value amounted to 0%; the “Fusion Rates, Micro-CT” value worked out at 0%; the “Fusion Rates, X-ray” value stood at 0%. Moreover, in the experiment with Lewis rats [4] (2 mg, 8 weeks), the “bilateral fusion, manual palpation (animals)” value is 4/8; the “bilateral fusion, micro-CT (animals)” value was 4/8; the “Fusion Mass Bone Volume” value came out at 21.217 mm^3; the “Fusion Mass Bone Volume to Tissue Volume” value is on record as 27.104%. In addition, in the experiment on Lewis rats [4] (2 mg, 8 weeks), the “Fusion Mass Total Tissue Volume” value is listed as 78.586 mm^3, the “Fusion Mass Trabecular Separation” value was 321.693 μm and the “trabecular thickness per footnote” value stood at 134.008. Moreover, in the experiment with Lewis rats [4] (2 mg), the “Fusion Rates, Manual Palpation” value was found to be 50%; the “Fusion Rates, Micro-CT” value is reported as 50%; the “Fusion Rates, X-ray” value amounted to 50%; the “bilateral fusion on radiographs (animals)” value was 3/8. Moreover, the “fusion on radiographs (animals)” value in the experiment with Lewis rats [4] (2 mg, eight weeks) is listed as 4/8. In addition, in the experiment with Lewis rats [4] (20 mg, 8 weeks), the “bilateral fusion, manual assessment (animals)” value is 6/7; the “Fusion Mass Bone Volume” value was 19.592 mm^3; the “Fusion Mass Bone Volume to Tissue Volume” value is 24.565%; the “Fusion Mass Total Tissue Volume” value is 79.934 mm^3. Besides, in the experiment on Lewis rats [4] (20 mg, 8 weeks), the “Fusion Mass Trabecular Separation” value is recorded as 310.912 μm and the “trabecular thickness per footnote” value is given as 124.737. In the experiment with Lewis rats [4] (20 mg), the “Fusion Rates, Manual Palpation” value was 86%; the “Fusion Rates, Micro-CT” value was 100%; the “Fusion Rates, X-ray” value was determined as 100%; the “bilateral fusion on radiographs (animals)” value is on record as 6/7. The same compound had a BSP expression increase in experiment [5] (2 and 4 weeks) of 4 fold. In experiment [5] (4 weeks), this compound yielded an OCN expression induction of 2 fold and an OSX expression induction of 3 fold. In addition, the BSP expression increase in experiment [5] (one week) is recorded as 2 fold. Also, the pEC50 in experiment [2] (Mus musculus, M210B4, 96 h, read-out: EC50 for inducing ALP activity) was ~6.36. Also, the “Gli-dependent reporter activity induction” value in experiment [6] (100 nM) amounted to 5 fold. For the same compound, the “Gli-dependent reporter activity induction” value in experiment [6] (1 μM) was 17 fold.

Take `CC(C)CCC[C@](C)(O)[C@H]1CC[C@H]2[C@@H]3CC=C4C[C@@H](O)CC[C@]4(C)[C@H]3CC[C@@]21C` [Oxy 20S, 20(S)-hydroxycholesterol]: the “amount of YFP-Smo captured on 20S-coupled beads” value on Smoothened (YFP-Smo) was “reduced the amount of YFP-Smo captured”.

What is called pEC50 is the negative decadic logarithm of the EC50, by convention in mol/L.
